According to patent US8506930B2, “Compounds having affinity for amyloid” (Nihon Medi-Physics Co., Ltd., priority 2006, dated 2013):

How the values were obtained:
[1] = test system: intracerebral amyloid (aggregated Aβ1-42 injected into amygdaloid nucleus); assay: Confirmation of imaging of amyloid in brain (ex vivo autoradiogram), Example I-31; parameters: species or system male Wistar rat
Description: (§1) (1) Aβ1-42 (Wako) was dissolved in phosphate buffer (pH 7.4) and shaken at 37° C. for 72 hours, to obtain a 1 mg/mL suspension of aggregated Aβ (hereinafter referred to as amyloid suspension in this Example).
(§2) (2) 2.5 μL (corresponding to 25 μg) of the amyloid suspension was injected into an amygdaloid nucleus on one side of a male Wistar rat (7-week old). As a control, 2.5 μL of a phosphate buffered physiological saline solution (pH 7.4) was injected into an amygdaloid nucleus on the other side of the rat. The rats were examined 1 day after the injection of the amyloid suspension and the phosphate buffered physiological saline solution (pH 7.4).
(§3) This solution was injected under thiopental anesthesia into the rat through the tail vein (dosage: 0.5 mL, dosed radioactivity: 11-15 MBq equivalent).
(§4) (4) Brain was removed 60 minutes after the injection to prepare a brain slice of 10 μm in thickness with a microtome (type: CM3050S, manufactured by LEICA). The brain slice was exposed to an imaging plate for 20 hours, and then image analysis was carried out by use of a Bio-imaging Analyzer (type: BAS-2500; manufactured by FUJIFILM Corporation).

[2] = target: T1, intracerebral amyloid (aggregated Aβ1-42 injected into amygdaloid nucleus) (Homo sapiens, UniProt P05067); assay: as above; parameters: species or system male Wistar rat; settings: brain slice 60 minutes after tail vein injection
T1 construct: Aβ1-42 (Wako) was dissolved in phosphate buffer (pH 7.4); purchased Wako
T1 sequence (P05067 672-713): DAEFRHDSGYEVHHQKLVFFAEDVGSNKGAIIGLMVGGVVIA
Description: as §1, §2, §3, §4

[3] = Transferability into brain and clearance (2), Example I-30; type: in vivo, male Wistar rats; settings: rats, intravenous injection, Table 1-10
Description: 0.05 mL each of these solutions was injected under thiopental anesthesia into the tail vein of respective Wistar rats (7-week old). The rats were sacrificed by bleeding from abdominal artery, and brains were removed and subjected to measurement of mass of brains and further subjected to measurement of radioactivity (hereinafter referred to as A in this Example) with a single channel analyzer (detector type: SP-20 manufactured by OHYO KOKEN KOGYO Co., Ltd.) 2, 5, 30 and 60 minutes after the injection. Also, radioactivity (hereinafter referred to as B in this Example) of the rest of the whole body was measured in the same manner as above. Using these measurement results, radioactive distribution per unit weight of brain (% ID/g) at the respective time points were calculated in accordance with the following formula (1-7).
Three animals were used for experiment at the respective time points.

[4] = rats, [11C]-labeled; cited from earlier work
[5] = Transferability into brain and clearance, Examples II-22 to II-23; type: in vivo, male Wistar rats; settings: rats, intravenous injection, Table 2-7
Description: 0.05 mL each of the prepared sample solutions was injected under thiopental anesthesia into the tail vein of the respective Wistar rat (7-week old). The rats were sacrificed by bleeding from abdominal artery, and brains were removed and subjected to measurement of mass of brains and further subjected to measurement of radioactivity (hereinafter referred to as A in this Example) with a single channel analyzer (detector type SP-20 manufactured by OHYO KOKEN KOGYO Co., Ltd.) 2, 5, 30, and 60 minutes after the injection. Further, the radioactivity level of the rest of the whole body was measured in the same manner as above (hereinafter referred to as B in this Example). Using these measurement results, radioactive distribution per unit weight of brain (% ID/g) at the respective time points were calculated in accordance with the following formula (2-5).
Three animals were used for the experiment at the respective time points.

[6] = test system: intracerebral amyloid (aggregated Aβ1-42 injected into amygdaloid nucleus); assay: Confirmation of imaging of amyloid in brain (ex vivo autoradiogram), Examples II-24 to II-25; parameters: species or system male Wistar rat; settings: for accumulation of radioactivity at sites other than the site to which amyloid was injected: autoradiogram, 60 minutes after tail vein injection; for accumulation of radioactivity in amygdaloid nucleus on the side to which the physiological saline solution was injected: brain slice 60 minutes after tail vein injection
Description: as §2, §3, §4

[7] = target: T1, intracerebral amyloid (aggregated Aβ1-42 injected into amygdaloid nucleus); assay: as above; parameters: species or system male Wistar rat; settings: brain slice 60 minutes after tail vein injection
Description: as §2, §3, §4

[8] = Partition coefficient based on the octanol extraction method, Examples II-20 to II-21; type: physicochemical; settings: octanol / 10 mmol/L phosphate buffer (pH 7.4); Table 2-6
Description: To 2 mL of octanol, 10 μL each of the prepared sample solution was added, and 2 mL of 10 mmol/L phosphate buffer (pH 7.4) was further added, followed by stirring for 30 seconds. After the mixture was centrifuged with a low-speed centrifuge (2000 rpm×60 min.), the octanol layer and the water layer were sampled each in an amount of 1 mL, and subjected to measurement of radioactivity count with an autowell gamma system (Type: ARC-301B, manufactured by Aloka). Using the obtained radioactivity count, log Poctanol was calculated in accordance with the equation (2-4).

[9] = test system: intracerebral amyloid (aggregated Aβ1-40 injected into amygdaloid nucleus); assay: Confirmation of imaging of amyloid in brain (ex vivo autoradiogram), Example I-22; parameters: species or system male Wistar rat; settings: brain slice 60 minutes after tail vein injection
Description: (§5) (1) Aβ1-40 (manufactured by Peptide Institute, INC.) was dissolved in phosphate buffer (pH 7.4) and shaken at 37° C. for 72 hours, to obtain 1 mg/mL of a suspension of aggregated Aβ (hereinafter referred to as amyloid suspension in this Example).
(§6) (2) 25 μL (corresponding to 25 μg) of the amyloid suspension was injected into an amygdaloid nucleus on one side of a male Wistar rat (7-week old). As a control, 25 μL of a phosphate buffered physiological saline solution (pH 7.4) was injected into an amygdaloid nucleus on the other side of the rat. The rats were examined 1 day after the injection of the amyloid suspension and the phosphate buffered physiological saline solution (pH 7.4).
(§7) This solution was injected into the rat through the tail vein (dosage: 0.5 mL, dosed radioactivity: 16 MBq equivalent).
as §4

[10] = target: T2, intracerebral amyloid (aggregated Aβ1-40 injected into amygdaloid nucleus) (Homo sapiens, UniProt P05067); assay: as above; parameters: species or system male Wistar rat; settings: brain slice 60 minutes after tail vein injection
T2 construct: Aβ1-40 (Peptide Institute, INC.) was dissolved in phosphate buffer (pH 7.4); purchased Peptide Institute, INC
T2 sequence (P05067 672-711): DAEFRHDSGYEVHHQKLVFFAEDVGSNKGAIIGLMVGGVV
Description: as §5, §6, §7, §4

[11] = Transferability into brain and clearance, Examples I-20 to I-21; type: in vivo, male Wistar rats; settings: rats, intravenous injection, Table 1-7
Text: Three animals were used for Experiment I-20 and Comparative Experiment I-9, and two animals were used for Experiment I-21 at the respective time points.

[12] = target: T3, amyloid (aggregated Aβ1-40) (Homo sapiens, UniProt P05067); assay: Measurement of binding to amyloid (radiolabelled compound, glass fiber filtration); settings: amyloid 2.5-1000 nmol/L, 22° C., 3 hours
T3 construct: Aβ1-40 (Peptide Institute, INC.) was dissolved in phosphate buffer (pH 7.4); purchased Peptide Institute, INC
T3 sequence (P05067 672-711 limits assumed): as the sequence (P05067 672-711) above
Description: (7) A relation between the amount of the Compound I-6 binding to amyloid and the amount of added amyloid was evaluated from the measurement results of (6). Unspecific binding was determined using a sample to which the Compound I-2 (non-RI labeled compound) was added to become 100 nM (at a final concentration) above in (4) (Example I-7).
(8) Using [^125I]-IMPY synthesized in the above Reference Example I-6, the same procedure as the above (2) to (6) were carried out to obtain control data (Comparative Example I-1).
A relation between the concentration of amyloid in the sample solution and the radioactive count on the glass fiber filter measured above in (6) is shown in FIG. 1-11. The radioactivity on the glass fiber was increased proportionally to the concentration (addition amount) of amyloid (Example I-7). […] Therefore, the radioactive count on the glass fiber is a value reflecting the amount of the compound attached to amyloid, and the slope of the graph which plotted the radioactive count relative to the concentration of amyloid is a value which can be an index representing the intensity of binding to amyloid.

SMILES	Radioactive distribution in brain per unit weight, After 2 min. [5] [% ID/g]	Radioactive distribution in brain per unit weight, After 5 min. [5] [% ID/g]	Radioactive distribution in brain per unit weight, After 30 min. [5] [% ID/g]	Radioactive distribution in brain per unit weight, After 60 min. [5] [% ID/g]	accumulation of radioactivity at sites other than the site to which amyloid was injected [6]	accumulation of radioactivity in amygdaloid nucleus on the side to which the physiological saline solution was injected [6]	accumulation of radioactivity in amygdaloid nucleus on the side to which the amyloid suspension was injected [7]	logPoctanol value [8]	other results
FCCOc1ccc(-c2cn3cc([123I])ccc3n2)cc1 [Compound I-9, 2-[4′-(2″-fluoroethoxy)phenyl]-6-[^123I]iodoimidazo[1,2-a]pyridine]	–	–	–	–	–	–	–	–	accumulation of radioactivity at sites other than the sites to which amyloid was injected ([1]; autoradiogram, 60 minutes after tail vein injection): little accumulation of radioactivity; accumulation of radioactivity in amygdaloid nucleus on the side to which the physiological saline solution was injected ([1]; brain slice 60 minutes after tail vein injection): no significant accumulation of radioactivity; accumulation of radioactivity in amygdaloid nucleus on the side to which the amyloid suspension was injected [2]: marked accumulation of radioactivity; Radioactive distribution in brain per unit weight, After 2 min. ([3]; 2 min.): 0.72 % ID/g; Radioactive distribution in brain per unit weight, After 5 min. ([3]; 5 min.): 0.49 % ID/g; Radioactive distribution in brain per unit weight, After 30 min. ([3]; 30 min.): 0.07 % ID/g; Radioactive distribution in brain per unit weight, After 60 min. ([3]; 60 min.): 0.02 % ID/g
CNc1ccc(/C=C/c2ccc(O)cc2)cc1 [SB-13, (E)-4-methylamino-4′-hydroxystilbene]	–	–	–	–	–	–	–	–	clearance from normal tissues [4]: it cannot be said that the clearance is sufficiently fast
OCCCOc1ccc(-c2cn3cc([123I])ccc3n2)cc1 [Compound II-6, 2-[4′-(3″-hydroxypropoxy)phenyl]-6-[^123I]iodoimidazo[1,2-a]pyridine]	0.81	0.56	0.07	0.02	little accumulation of radioactivity	no significant accumulation of radioactivity	marked accumulation of radioactivity	2.1	–
FCCCOc1ccc(-c2cn3cc([123I])ccc3n2)cc1 [Compound I-7, 2-[4′-(3″-fluoropropoxy)phenyl]-6-[^123I]iodoimidazo[1,2-a]pyridine]	–	–	–	–	–	–	–	–	accumulation of radioactivity in amygdaloid nucleus on the side to which the physiological saline solution was injected [9]: no significant accumulation of radioactivity; accumulation of radioactivity in amygdaloid nucleus on the side to which the amyloid suspension was injected [10]: marked accumulation of radioactivity; Radioactive distribution in brain per unit weight, After 2 min. ([11]; 2 min.): 1.10 % ID/g; Radioactive distribution in brain per unit weight, After 5 min. ([11]; 5 min.): 0.75 % ID/g; Radioactive distribution in brain per unit weight, After 30 min. ([11]; 30 min.): 0.12 % ID/g; Radioactive distribution in brain per unit weight, After 60 min. ([11]; 60 min.): 0.05 % ID/g
FCCCOc1ccc(-c2cn3cc([125I])ccc3n2)cc1 [Compound I-6, 2-[4′-(3″-fluoropropoxy)phenyl]-6-[^125I]iodoimidazo[1,2-a]pyridine]	–	–	–	–	–	–	–	–	slope of radioactive count on the glass fiber relative to the concentration of amyloid (index of intensity of binding to amyloid) [12]: greater than the slope for [^125I]-IMPY
OCCOc1cccc(-c2cn3cc([123I])ccc3n2)c1 [Compound II-4, 2-[3′-(2″-hydroxyethoxy)phenyl]-6-[^123I]iodoimidazo[1,2-a]pyridine]	0.56	0.28	0.04	0.01	little accumulation of radioactivity	no significant accumulation of radioactivity	marked accumulation of radioactivity	2.5	–
